In patent publication US12297192B2, “Crystal form of pyrimidine sulfonamide compound and preparation method therefor” (WUXI BIOCITY BIOPHARMACEUTICS CO., LTD., priority 2019, dated 2025):
Several values for one entry are separate records, joined by “and”; a condition that tells them apart may be missing. Equal values may be shown once.

How the values were obtained:
[1] = Stability test of Crystal Form A in different solvents (XRPD after 3 days stirring in saturated solutions); type: physicochemical; conditions: for Crystalline (form by XRPD, 3 days later) / Status (3 days later): 0.3 mL
Protocol: The crude compound of formula (I) was dissolved in dichloromethane at 38-40° C., filtered while hot, concentrated under reduced pressure to dryness to obtain mixed crystals of formula (I). Saturated solutions of mixed crystals of the compound of formula (I) in THF and ACN were prepared at 50° C., respectively.
The suspension was centrifuged. The precipitate was taken and dried overnight in a vacuum oven at 30° C. The dried product was subjected to XRPD to determine the status of the crystal forms.

human ETB receptors = molecular target: T1, human ETB receptors (Homo sapiens, UniProt P24530); experiment: In vitro antagonistic effect on human ETB receptors (Ca2+ fluorescence, transfected CHO cells); type: cell-based; conditions: 0.3 nM endothelin-1
T1 construct: host or cells: CHO cells
T1 sequence (P24530 27-442): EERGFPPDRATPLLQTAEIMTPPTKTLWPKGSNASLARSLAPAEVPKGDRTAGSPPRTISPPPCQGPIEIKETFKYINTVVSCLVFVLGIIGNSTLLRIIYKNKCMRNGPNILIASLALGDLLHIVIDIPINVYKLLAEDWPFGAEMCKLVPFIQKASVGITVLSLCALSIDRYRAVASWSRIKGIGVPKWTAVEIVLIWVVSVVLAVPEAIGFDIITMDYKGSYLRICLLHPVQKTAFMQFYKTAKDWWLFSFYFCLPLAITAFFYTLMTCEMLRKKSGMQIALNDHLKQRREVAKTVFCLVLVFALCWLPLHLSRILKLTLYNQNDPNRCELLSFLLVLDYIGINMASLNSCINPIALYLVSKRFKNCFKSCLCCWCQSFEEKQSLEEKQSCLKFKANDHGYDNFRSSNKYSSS
Protocol: The antagonist activities of the compounds on human ETB receptors expressed in transfected CHO cells were assessed by measuring the effects of the compounds on changes in cytoplasmic Ca^2+ ion signaling induced by an agonist of human ETB receptor using a fluorescence assay. The functional activity of the ETB receptor antagonistic effect was tested at Eurofins-Cerep SA according to current standard operating procedures.
• 1. Cells were suspended in DMEM buffer (Invitrogen) and then distributed at a density of 3×10^4 cells/well in 384 plates (100 μL/well). • 2. HBSS buffer (Invitrogen) supplemented with 20 mM Hepes (Invitrogen) (pH 7.4) was mixed with the fluorescent probe (Fluo4 Direct, Invitrogen) and added to each well. Equilibrated with the cells for 60 minutes at 37° C. and then for 15 minutes at 22° C. • 3. The assay plate was placed in a microplate reader (CellLux, PerkinElmer). DMSO solution of the test compound and the positive control or HBSS buffer in appropriate concentration was added. […] Then the change in fluorescence intensity was measured. The fluorescence intensity is in proportion to the Ca^2+ ion concentration of the free cytosol. • 4. […] The standard positive control was BQ-788 and several concentrations were tested in each experiment and the data was analyzed using Prism to produce a concentration-response curve to calculate the IC50 values of the compounds. […]

[2] = Hygroscopicity study of Crystal Form A; type: physicochemical; conditions: 25° C., 24 hours
Source text: Categorization in the hygroscopicity evaluation is as follows:
• 1) Two dry stoppered glass weighing bottles (50 mm external diameter, 30 mm high) were taken and kept in a desiccator with a saturated solution of ammonium chloride in the lower part. The weighing bottles were left open.

CYP1A2 = molecular target: T2, CYP1A2 (Homo sapiens, UniProt P05177); experiment: Human liver microsomal cytochrome P450 isozyme inhibition; type: in vitro ADME; conditions: human liver microsomes
T2 construct: Mixed human liver microsomes (HLM) were purchased from Corning Inc; tissue Corning Inc; host or cells: pooled human liver microsomes
T2 sequence (P05177 1-516): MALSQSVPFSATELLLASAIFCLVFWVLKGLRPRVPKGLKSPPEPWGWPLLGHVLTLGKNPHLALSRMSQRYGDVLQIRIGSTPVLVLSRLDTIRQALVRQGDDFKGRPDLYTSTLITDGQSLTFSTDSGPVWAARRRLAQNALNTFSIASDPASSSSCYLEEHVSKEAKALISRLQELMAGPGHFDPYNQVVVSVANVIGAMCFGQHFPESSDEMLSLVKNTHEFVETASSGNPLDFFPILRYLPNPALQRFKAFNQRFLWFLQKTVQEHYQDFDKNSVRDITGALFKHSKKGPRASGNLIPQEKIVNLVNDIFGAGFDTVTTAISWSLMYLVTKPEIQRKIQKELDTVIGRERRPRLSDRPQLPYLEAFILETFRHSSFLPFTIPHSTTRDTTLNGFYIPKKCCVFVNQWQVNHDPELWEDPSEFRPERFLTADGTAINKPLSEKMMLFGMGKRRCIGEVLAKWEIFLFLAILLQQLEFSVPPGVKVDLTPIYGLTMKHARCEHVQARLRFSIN
Protocol: (§1) The aim of the project was to evaluate the inhibitory activity of the test article against human liver microsomal cytochrome P450 isozymes (CYP1A2, CYP2C9, CYP2C19, CYP2D6 and CYP3A4) using a 5-in-1 probe substrate for CYP isozymes.
(§2) Mixed human liver microsomes (HLM) were purchased from Corning Inc. (Steuben, New York, USA) and stored at less than −80° C. prior to use. A diluted series of concentrations of the stock solution of the test article was added to an incubation system containing human liver microsomes, probe substrate and cofactors of the circulatory system. The control without the test article but with solvent was used as the enzyme activity control (100%). The concentration of metabolites generated by the probe substrate in the samples was determined by liquid chromatography-tandem mass spectrometry (LC-MS/MS). A non-linear regression analysis of the mean percentage activity of the test article against concentration was performed using SigmaPlot (V.11). The IC50 values were calculated using a three- or four-parameter inverse hyperbolic logarithmic function.

CYP2C9 = molecular target: T3, CYP2C9 (Homo sapiens, UniProt P11712); experiment: as above; type: in vitro ADME; conditions: human liver microsomes
T3 construct: Mixed human liver microsomes (HLM) were purchased from Corning Inc; tissue Corning Inc; host or cells: pooled human liver microsomes
T3 sequence (P11712 whole entry): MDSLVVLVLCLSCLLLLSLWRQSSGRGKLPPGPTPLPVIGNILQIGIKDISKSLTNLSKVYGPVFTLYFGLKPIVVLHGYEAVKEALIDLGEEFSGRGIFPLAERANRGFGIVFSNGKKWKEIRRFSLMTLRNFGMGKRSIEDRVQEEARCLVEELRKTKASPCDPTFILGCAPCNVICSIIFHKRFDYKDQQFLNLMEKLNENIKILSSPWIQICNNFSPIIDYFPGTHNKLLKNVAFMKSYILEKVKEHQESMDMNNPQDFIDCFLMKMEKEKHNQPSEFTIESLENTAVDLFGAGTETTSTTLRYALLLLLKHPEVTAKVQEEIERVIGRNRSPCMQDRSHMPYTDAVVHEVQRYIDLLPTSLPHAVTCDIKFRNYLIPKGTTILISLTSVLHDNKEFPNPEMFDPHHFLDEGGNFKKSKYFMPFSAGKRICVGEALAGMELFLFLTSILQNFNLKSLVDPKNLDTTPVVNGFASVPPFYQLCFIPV
Protocol: as §1, §2

CYP2C19 = molecular target: T4, CYP2C19 (Homo sapiens, UniProt P33261); experiment: as above; type: in vitro ADME; conditions: human liver microsomes
T4 construct: Mixed human liver microsomes (HLM) were purchased from Corning Inc; tissue Corning Inc; host or cells: pooled human liver microsomes
T4 sequence (P33261 whole entry): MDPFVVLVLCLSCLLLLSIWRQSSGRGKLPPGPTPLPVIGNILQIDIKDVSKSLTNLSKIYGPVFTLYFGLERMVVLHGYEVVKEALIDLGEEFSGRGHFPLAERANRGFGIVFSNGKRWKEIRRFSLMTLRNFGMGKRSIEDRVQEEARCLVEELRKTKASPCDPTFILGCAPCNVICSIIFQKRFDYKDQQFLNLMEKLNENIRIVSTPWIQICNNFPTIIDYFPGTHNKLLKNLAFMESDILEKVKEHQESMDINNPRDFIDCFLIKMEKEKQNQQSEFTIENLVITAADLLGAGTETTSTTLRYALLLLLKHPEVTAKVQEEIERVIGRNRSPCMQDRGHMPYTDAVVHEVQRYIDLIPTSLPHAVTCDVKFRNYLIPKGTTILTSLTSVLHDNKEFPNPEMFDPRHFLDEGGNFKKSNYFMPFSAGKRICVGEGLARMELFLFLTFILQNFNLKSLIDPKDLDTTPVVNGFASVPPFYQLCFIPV
Protocol: as §1, §2

| Structure (SMILES) | Crystalline (form by XRPD, 3 days later) ([1]; Acetonitrile, 25 °C) | Status (3 days later) ([1]; Acetonitrile, 25 °C) | Crystalline (form by XRPD, 3 days later) ([1]; Acetonitrile, 50 °C) | Status (3 days later) ([1]; Acetonitrile, 50 °C) | Crystalline (form by XRPD, 3 days later) ([1]; Tetrahydrofuran, 25 °C) | Status (3 days later) ([1]; Tetrahydrofuran, 25 °C) | Crystalline (form by XRPD, 3 days later) ([1]; Tetrahydrofuran, 50 °C) | Status (3 days later) ([1]; Tetrahydrofuran, 50 °C) | Stability in solvents (conclusion in words) ([1]; acetonitrile and tetrahydrofuran at both 25° C. and 50° C.) | IC50 (human ETB receptors) [µM] | Hygroscopicity categorization [2] | Moisture-absorption weight gain, Mean (%) ([2]; mean of two samples, desiccator with saturated ammonium chloride solution) | Weight gain percentage (%) ([2]; single sample, desiccator with saturated ammonium chloride solution) | IC50 (CYP1A2) [µM] | Inhibition on the isozyme CYP2C9 (in words) (CYP2C9) | IC50 (CYP2C19) [µM] |
| --- | --- | --- | --- | --- | --- | --- | --- | --- | --- | --- | --- | --- | --- | --- | --- | --- |
| COCCNS(=O)(=O)Nc1ncnc(OCCOc2ncc(Br)cn2)c1-c1ccc2c(c1)OCO2 | Crystal Form A | Precipitation | Crystal Form A | Precipitation | Crystal Form A | Precipitation | Crystal Form A | Precipitation | Experimental conclusion: Crystal Form A of the compound of formula (I) had good stability in acetonitrile and tetrahydrofuran at both 25 °C and 50 °C | 32 | non- or almost non-hygroscopic | 0.075 | 0.11% and 0.04% |  |  |  |
| CCCNS(=O)(=O)Nc1ncnc(OCCOc2ncc(Br)cn2)c1-c1ccc(Br)cc1 [Macitentan, reference compound] |  |  |  |  |  |  |  |  |  |  |  |  |  | 37.4 | moderate inhibition | 31.7 |
